In patent EP4717694A1, “PYRAZOLFORMYL PIPERAZINONE COMPOUND, PHARMACEUTICAL COMPOSITION AND USE THEREOF” (Iregene Therapeutics Co., Ltd., priority 2023, dated 2024):

Tests used:
[1] = biological target: BMPR1B kinase (Homo sapiens, UniProt O00238); test: Kinase activity screening (330 kinases, HTRF or ADP-Glo); assay type: biochemical; settings: screen of 330 kinases; II-1 2.5 mM, 25 nL in DMSO added to 2.5 µL kinase; Figure 1A
Protocol: (§1) A total of 330 kinase candidates (15-50 nM, 2.5 µL) were mixed with compound II-1 (2.5 mM, 25 nL, prepared in DMSO) and incubated at 25 °C for 10 minutes. Then, a mixture of kinase peptide substrate (0.2 mg/mL; supplier: GenScript) and ATP (10-60 µM; supplier: Promega; product number: V915B) was added (total 2.5 µL, prepared in assay buffer), and the reaction was carried out at 25 °C for 60-120 minutes. Finally, the reaction products were quantified using HTRF1 or ADP-Glo2 methods. During the kinase activity assay, the consumption of each substrate was kept below 10%, and each kinase assay was performed in duplicate.

[2] = biological target: T1, BMPR2 (Homo sapiens, UniProt Q13873); test: Kinase activity assay (HTRF or ADP-Glo); assay type: biochemical
T1 sequence (Q13873 27-1038): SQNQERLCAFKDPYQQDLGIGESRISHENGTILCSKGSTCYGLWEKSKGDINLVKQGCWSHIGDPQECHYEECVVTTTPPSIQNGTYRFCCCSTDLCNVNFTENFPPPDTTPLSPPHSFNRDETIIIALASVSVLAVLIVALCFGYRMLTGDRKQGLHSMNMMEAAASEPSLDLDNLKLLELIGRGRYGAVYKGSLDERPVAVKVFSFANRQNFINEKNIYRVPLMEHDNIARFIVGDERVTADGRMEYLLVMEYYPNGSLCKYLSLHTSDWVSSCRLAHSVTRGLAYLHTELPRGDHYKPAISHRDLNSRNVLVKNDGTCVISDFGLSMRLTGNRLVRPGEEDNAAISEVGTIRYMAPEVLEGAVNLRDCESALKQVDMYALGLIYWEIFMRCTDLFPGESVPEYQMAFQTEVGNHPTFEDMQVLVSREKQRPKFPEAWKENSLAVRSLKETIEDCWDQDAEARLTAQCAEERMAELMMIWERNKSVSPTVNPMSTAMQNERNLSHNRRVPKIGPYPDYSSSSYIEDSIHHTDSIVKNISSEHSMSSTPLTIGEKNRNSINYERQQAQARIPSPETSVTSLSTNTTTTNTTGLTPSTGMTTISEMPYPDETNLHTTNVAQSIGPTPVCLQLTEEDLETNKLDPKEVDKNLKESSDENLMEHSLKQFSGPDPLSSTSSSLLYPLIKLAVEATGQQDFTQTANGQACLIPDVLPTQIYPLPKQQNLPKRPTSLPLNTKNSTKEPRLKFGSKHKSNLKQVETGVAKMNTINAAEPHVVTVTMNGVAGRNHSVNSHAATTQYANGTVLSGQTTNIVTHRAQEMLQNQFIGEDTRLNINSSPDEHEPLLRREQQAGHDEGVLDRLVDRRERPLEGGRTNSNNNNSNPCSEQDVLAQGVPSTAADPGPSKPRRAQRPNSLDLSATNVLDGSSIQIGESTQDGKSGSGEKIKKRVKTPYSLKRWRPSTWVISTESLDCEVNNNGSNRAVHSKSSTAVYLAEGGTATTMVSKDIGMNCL
Protocol: as §1

[3] = tested on: glioma U251 cells; test: Treatment of glioma cells, qPCR transcriptional analysis (CASP3) and cytotoxicity versus LY2157299; assay type: cell-based
Protocol: In this example, compound II-1 and the reference compound LY2157299 were used to treat glioma U251 cells. Samples were collected at 12 hours and 72 hours posttreatment. Total RNA was extracted using the Rneasy Mini or Micro Kit (QIAGEN), and […] of RNA was reverse-transcribed into cDNA using the SuperScript III First-Strand Synthesis System (Invitrogen). Quantitative PCR was performed using SYBR Premix Ex Taq (TaKaRa) on a Thermal Cycler Dice Real-Time System (TaKaRa), with beta-Actin serving as an internal control. All data were analyzed using the delta-Ct method. Each experiment was performed in triplicate, and variance analysis was conducted. […] Table 3. Primers for transcriptional analysis of cells treated with compound II-1

Sequence of BMPR1B kinase (O00238 14-502): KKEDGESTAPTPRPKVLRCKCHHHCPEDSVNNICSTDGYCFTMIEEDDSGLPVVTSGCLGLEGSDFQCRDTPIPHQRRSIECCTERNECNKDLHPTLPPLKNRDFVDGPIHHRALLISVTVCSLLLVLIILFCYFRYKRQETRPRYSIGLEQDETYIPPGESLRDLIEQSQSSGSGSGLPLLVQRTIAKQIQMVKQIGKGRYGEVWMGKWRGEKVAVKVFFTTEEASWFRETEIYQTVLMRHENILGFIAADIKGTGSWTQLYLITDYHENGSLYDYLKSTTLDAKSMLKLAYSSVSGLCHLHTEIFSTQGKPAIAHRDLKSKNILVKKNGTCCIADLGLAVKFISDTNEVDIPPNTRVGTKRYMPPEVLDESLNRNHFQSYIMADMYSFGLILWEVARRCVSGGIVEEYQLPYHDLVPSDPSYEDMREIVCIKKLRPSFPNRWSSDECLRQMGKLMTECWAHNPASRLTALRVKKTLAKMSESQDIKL

inhibitory activity against BMPR1B kinase [1]: significant inhibitory activity
inhibition of BMPR2 kinase ([2]; different concentrations, up to 12.5 µM, threefold serial dilution, Figure 1C): no inhibition
inhibition of kinase activity of BMPR2 ([2]; same concentration as in the 330 kinase screen): did not inhibit
Structure (SMILES): O=C1CN(C(=O)c2n[nH]c3c2CCC3)[C@H]2CCCC[C@@H]2N1 [II-1, (4aS,8aS)-4-(1,4,5,6-tetrahydrocyclopenta[c]pyrazole-3-carbonyl)octahydroquinoxalin-2(1H)-one]
cells remaining in the wells compared to LY2157299 ([3]; after 72 hours of treatment, Figure 3): fewer cells remained
apoptosis compared to LY2157299 ([3]; same concentration as LY2157299, Figure 3): higher apoptosis
